Data on six molecules can be found in PMC6524416, “Nanofibrous Scaffolds Support a 3D in vitro Permeability Model of the Human Intestinal Epithelium” (Frontiers in Pharmacology, 2019).

As a reminder, the Papp A→B is the apparent permeability from the apical to the basolateral side of a cell layer. One may read the Papp B→A as how fast a substance crosses the layer from the basolateral side. For orientation: Papp means the rate of passage across a membrane or cell layer, normalised by area and donor concentration. As usually defined, the efflux ratio is the permeability from basolateral to apical divided by that in the opposite direction, in the common usage.

A short description of data set [1]: Bidirectional permeability across ex vivo porcine intestinal segments. Type of data set: in vitro ADME, pig. The settings on record: pig; for recovery: pH 7.4, porcine intestinal segments; for Papp A→B / Papp B→A: pH 7.4, all porcine segments (duodenum, jejunum, ileum); for Papp A→B: A to B, read-out: Papp (A to B), range over porcine segments; for Papp B→A: B to A, read-out: Papp (B to A), range over porcine segments. On the procedure:
(§1) In accordance with the NC3R framework on the reduction and refinement of animals in research; samples were only obtained from healthy adult pig cadavers being used for the purposes of other research projects. The work was conducted according to United Kingdom Home Office guidelines (Animal Scientific Procedures Act […]) and following local AWERB approval (ref 000057). Regional sections from the duodenum (first 25 cm from the stomach), jejunum (150 cm from the stomach) and ileum (first 50 cm back from the ileocecal valve) were resected from pig cadavers (Supplementary Figure S2). Using tweezers the serosa and muscularis propria (muscle layers) were carefully peeled away leaving the mucosa. Sections were washed in PBS, cut to fit the Transwell® inserts (Corning Life Sciences) and transferred in 6-well plates. All tissue was kept on the ice and used within a 24 h time period, post-collection.
(§2) Transport studies were conducted using standard, widely accepted protocols as previously described ([Volpe, 2008]). Transport markers were prepared in transport buffer (HBSS, 25 mM HEPES, pH 7.4). Dimethyl sulfoxide (DMSO) was used to aid solubilisation of poorly soluble drugs at a maximum final concentration of 0.1% (v/v) used in all transport experiments. TEER was measured before and after each experiment to ensure barrier integrity during the experiments and as a control measure of experimental validity. Inserts were transferred to fresh plates containing transport buffer (apical/basolateral volumes were 0.4/1.2 mL and 0.5/6 mL for Transwell® and Snapwell® inserts, respectively). Donor solutions were added to the relevant compartments and the inserts were then incubated at 37°C with shaking at 150 rpm and sampled at intervals of 30 min or 1 h for 1–2 h. Apparent permeability coefficients (Papp) were calculated according to Eq. 2:
(§3) Where dQ/dt is the flux of the compound being investigated (μM s-1), A is the exposed surface area of the insert/scaffold (cm^2) and C0 is the concentration in the apical compartment at t = 0 (μM).
(§4) Compound recovery following permeability assessment were calculated according the following Eq. 3:
(§5) (3) Recovery (%)=[CR(final)×VR(final))×100/(CD(initial)×VD(initial)]
(§6) Where CD and CR are the donor and receiver compartment concentrations, VD and VR are the donor and receiver compartment volumes at t = 0 (initial) or the end of the experiment (final).
(§7) All HPLC was performed using a Kinetix XB-C18 5 μm, 100 Å pore size, 150 mm × 4.56 mm column (with a guard column) on an Agilent 1100 HPLC system. […] Samples were analyzed using gradient runs with Milli-Q dH2O, 0.5% TFA (eluent A) and acetonitrile, 0.5% TFA (eluent B).

Data set [2] is described as follows: Bidirectional permeability across Caco-2 monolayers on Transwell inserts. Type of data set: in vitro ADME, human. As to conditions: human, Caco-2 on Transwell; for Papp A→B: apical to basolateral; for Papp A→B / Papp B→A: pH 7.4, mean (±SD); for Papp B→A: basolateral to apical. The method, then:
(§8) Caco-2 (used within 20 passages throughout the study) was obtained from the Clinical Pathology Laboratory, Queens Medical Centre, Nottingham and are available from ATCC. They were cultured in DMEM (Gibco) supplemented with 10% (v/v) foetal calf serum (FCS), 2 mM L-Glutamine solution, 1% (v/v) antibiotic/antimycotic solution (Gibco; final concentrations of […] streptomycin sulfate and 25 μgmL^-1 amphotericin B) at 37°C, 5% CO2 in 95% relative humidity (RH). Cells were cultured to around 80% confluence before harvesting cells by passaging with Trypsin/EDTA (Sigma Aldrich). Cell culture media was replaced every 2 days. For the initial evaluation of the scaffold compatibility, Collagen type I and untreated nanofibrous scaffolds were mounted in 24-well Cell Crown^TM inserts (Scaffdex). The mounted inserts were then placed in 12-well culture plates and seeded with 50,000 cells in 200 μL per insert. An additional 1 mL culture media was added to the well of the plate which ensured the insert were adequately surrounded and bathed in culture media. Following 24 h of culture at 37°C, 5% CO2, the PrestoBlue viability assay was carried out according to manufacturer’s instructions. In brief, a working solution of 10% (v/v) was prepared from the stock PrestoBlue solution in HBSS and sterile filtered using a 0.2 μm pore filter. Samples were washed three times with pre-warmed PBS and the working solution of PrestoBlue solution applied to the upper chamber of the inserts. Following a 30 min incubation period at 37°C, 5% CO2 with shaking at 150 rpm, 100 μL aliquots were taken from each sample and dispensed in triplicate into a black 96-well plate. The fluorescence of the samples was determined using a plate reader (Tecan Infinite 200, Tecan, United Kingdom) at 530/590 nm (excitation/emission wavelengths). Subsequent viability assays were conducted on day 3 and day 6 of culture to provide an initial assessment of the benefit of the surface treatments on cell adhesion and proliferation. To evaluate barrier formation, Snapwell® hanging inserts (6-well; Corning Life Sciences) were employed as unlike the CellCrown^TM inserts, the Snapwell® hanging inserts provided discrete apical and basolateral chambers in a 6-well plate formate appropriate for assessing barrier formation. The existing polycarbonate membrane on the securing clip of the Snapwell® insert were removed with a scalpel and the nanofiber scaffold affixed securely to the hanging insert by means of the securing clip (Supplementary Figure S1). Cells were seeded using the same cell density (178,000 cells/cm^2) as had been previously optimized for Caco-2 Transwell® cultures ([Hubatsch et al., 2007]). A cell suspension containing 200,000 cells in 500 μL were seeded onto the upper chamber of the Snapwell® inserts and cultured for 15–21 days at 37°C, 5% CO2 in air prior for TEER evaluation and for permeability tests.
as §2, with “2: […]” for “2:”
(In general: Caco-2 monolayers are a common model of the intestinal barrier.)

Data set [3] can be described thus: Bidirectional permeability across Caco-2 cultures on collagen-coated PET nanofibrous scaffolds. Type of data set: in vitro ADME, human. The settings on record: human, Caco-2 on nanofiber scaffolds, pH 7.4, mean (±SD). On the procedure: (§9) Polyethylene terephthalate flakes (food grade; were procured from recycled plastic bottles and processed in-house) were dissolved in a 1:1 solution of dichloromethane and trifluoroacetic acid (overnight with stirring) and the polymer solution transferred into a syringe fitted with a blunt needle (18 gauge spinneret) attached to a syringe pump (Harvard Apparatus, United Kingdom). Electrospinning was conducted at a flow rate of 0.5 mL/hr at 14 kV voltage (Glassman High Voltage Inc., Series EL, Glassman Europe Ltd., United Kingdom; Supplementary Figure S1). The fibers were collected on a grounded static plate or rotating collector (a tip-collector distance of 15 cm). The scaffolds were removed with the aid of 70% (v/v) IMS and allowed to air dry at room temperature (RT).
(§10) The nanofibrous scaffolds were surface coated with type I bovine collagen (Sigma-Aldrich). For type I bovine collagen coating, 150 μL of collagen solution (stock and working concentrations 3.1 mg/mL and 31 μg/mL, respectively) was gently pipetted ensuring adequate coverage of the entire scaffold. Samples were incubated at RT under aseptic conditions for 1–2 h. Any remaining collagen solution was aspirated and the scaffolds washed with PBS before cell seeding. Control scaffolds included PET nanofibers with no surface treatment.
as §8, with “S1).” for “S1). Cells were seeded using the same cell density (178,000 cells/cm^2) as had been previously optimized for Caco-2 Transwell® cultures ([Hubatsch et al., 2007]). A cell suspension containing 200,000 cells in 500 μL were seeded onto the upper chamber of the Snapwell® inserts and cultured for 15–21 days at 37°C, 5% CO2 in air prior for TEER evaluation and for permeability tests.”

Data set [4] has as its system Caco-2 cultures on nanofibrous scaffolds. The data set is described as above. Type of data set: in vitro ADME, human. On the procedure: as §9, §10
as §8, with “S1).” for “S1). Cells were seeded using the same cell density (178,000 cells/cm^2) as had been previously optimized for Caco-2 Transwell® cultures ([Hubatsch et al., 2007]). A cell suspension containing 200,000 cells in 500 μL were seeded onto the upper chamber of the Snapwell® inserts and cultured for 15–21 days at 37°C, 5% CO2 in air prior for TEER evaluation and for permeability tests.”

In data set [5] the test system is porcine intestinal tissue. As to conditions: uncorrected Papp; ref Westerhout et al. (2014); cited from earlier work.
The subject of data set [6] is porcine intestinal segments. The experiment in a line: Bidirectional permeability across ex vivo porcine intestinal segments. In kind it is in vitro ADME, pig. The method, then: as §1, §2, §3, §4, §5, §6, §7
The subject of another data set is human jejunal. As to conditions: ref Sjöberg et al. (2013), Rozehnal et al. (2012), cited from earlier work.
In data set [7] the test system is Caco-2 monolayers on Transwell®. The experiment in a line: Bidirectional permeability across Caco-2 monolayers on Transwell inserts. As to conditions: Caco-2 on Transwell, pH 7.4, mean (±SD). In kind it is in vitro ADME, human. The method, then:
as §8
as §2, with “2: […]” for “2:”

The next data set concerns Caco-2 monolayers. More on the design: method as in Artursson et al., 1993, 2001. The settings on record: ref Artursson et al., 1993, 2001; cited from earlier work.

Like-named read-outs stand apart in the source and are kept apart here.

As for `CC(C)NCC(O)COc1ccc(CC(N)=O)cc1` (stereo not drawn) [ATN, Atenolol], the recovery was 80% in data set [1] (read-out: average recovery) and 70 to 95% in data set [1] (read-out: recovery (range)).

Consider `CC(C)NCC(O)COc1cccc2ccccc12` (stereo not drawn) [PRN, Propranolol], for which the recovery was 58% in data set [1] (read-out: average recovery) and 35 to 75% in data set [1] (read-out: recovery (range)). Besides, the values for the Papp A→B in data set [1], in data set [2] and in data set [3] (apical to basolateral) were 7.76 to 9.6 ×10⁻⁶ cm/s, 30.7 ×10⁻⁶ cm/s and 86.3 ×10⁻⁶ cm/s, respectively. Moreover, the results for the Papp B→A in data set [1], in [2] and in data set [3] (basolateral to apical) were 1.85 to 5.5 ×10⁻⁶ cm/s, 32 ×10⁻⁶ cm/s and 75.1 ×10⁻⁶ cm/s, respectively. Besides, the “increase in permeability over Transwell cultures” value in [4] (nanofiber based culture vs Transwell Caco-2) is given as “more than a two-fold increase”. Further, the Papp in data set [5] is 0.42 ×10⁻⁶ cm/s.

Take `COC(=O)c1ccccc1-c1c2ccc(=N)cc-2oc2cc(N)ccc12` [Rho-123, rhodamine 123]: the recovery in [1] (read-out: recovery (range)) was in the range of 37 to 54%. Further, the figures for the Papp A→B in data set [1] and in data set [2] were 5.6 to 7.6 ×10⁻⁶ cm/s and 0.82 ×10⁻⁶ cm/s, respectively. Moreover, the figures for the Papp B→A in data set [1] and in data set [2] were 1.8 to 3.6 ×10⁻⁶ cm/s and 3.8 ×10⁻⁶ cm/s, respectively. For the same molecule, the active efflux result in data set [6] (porcine tissue segments) and in data set [4] (3D nanofiber based cultures) was “not detectable” each time. The efflux ratio at 10 µM in data set [2] (pH 7.4, B to A / A to B) amounted to 4.6.

On to `OC[C@@H](O)[C@@H](O)[C@H](O)[C@H](O)CO` [mannitol], for which, in the data set with human jejunal (second listed value), the “human jejunal Papp” value is 5.56 ± 2.21 × 10^-6 cm s^-1.

As for lucifer yellow [LY], the “human jejunal Papp” value with human jejunal (first listed value) is 4.02 ± 2.20 × 10^-6 cm s^-1. The “Papp (A to B)” value in data set [6] (porcine duodenal section) is listed as 4.66 (±1.19) × 10^-6 cm s^-1; in [6] (porcine ileal section) it was 5.58 (±3.93) × 10^-6 cm s^-1; in data set [6] (porcine jejunal section), 5.71 (±1.50) × 10^-6 cm s^-1; in [7] (apical to basolateral) it was 0.30 (±0.13) × 10^-6 cm s^-1; in data set [4] (Caco-2 on nanofiber scaffolds, apical to basolateral, pH 7.4, mean (±SD)), 7.14 (±0.4.53) × 10^-6 cm s^-1. Also, the “Papp (B to A)” value in data set [6] (porcine duodenal section) is 2.01 (±0.85) × 10^-6 cm s^-1; in [6] (porcine ileal section) it was 3.80 (±3.46) × 10^-6 cm s^-1; in [6] (porcine jejunal section), 4.31 (±2.58) × 10^-6 cm s^-1; in data set [7] (basolateral to apical) it was 0.66 (±0.23) × 10^-6 cm s^-1; in data set [4] (Caco-2 on nanofiber scaffolds, basolateral to apical, pH 7.4, mean (±SD)), 8.51 (±6.61) × 10^-6 cm s^-1.

For the molecule polyethylene glycols, the “fold lower permeability in Caco-2 monolayers compared to human in vivo” value in the data set with Caco-2 monolayers is approximately 100 fold.
